Experiment [1] has as its system hepatitis B virus (HBV). Description: Intracellular HBV DNA in infected HepG2 cells (PCR, densitometry). Type of experiment: cell-based, HBV in human hepatoma HepG2 cells. The settings on record: HepG2 cells infected with HBV and post treated with NBDNJ, vs untreated. Here is the method: FIG. 3B and FIG. 3D: DNA from the intracellular compartment of the cultures infected in FIG. 3A with HBV and treated with NBDNJ were amplified by PCR. The lanes contain amplified DNA from the following samples:
FIG. 3D: Histogram of the area under the averaged peaks of the densitometric tracing of the gel in FIG. 3B. […] Equal volumes of the indicated samples were tested for HBV envelope antigens using the enzyme-linked imminosorbent assay (ELISA) method. Samples of unfractionated medium (FIGS. 4A, 4B and 4C) or partially purified virus (FIGS. 4D, 4E and 4F) from 3-day cultures were tested for HBV SHBs ("S) (FIGS. 4A and 4D), LHBs: "PreS1" (FIGS. 4B and 4E) or MHBs "PreS2" (FIGS. 4C and 4F) epitopes. […]
Progeny virus in the medium of HepG2 cells infected with serum derived HBV was detected by precipitating medium with monoclonal antibody to the PreS2 epitopes. […]
Since the culture medium of HBV infected HepG2 cells treated with NBDNJ was similar to 2.2.15 cells, with respect to the reduced amount of virion associated DNA, it was of interest to know if there was a concomitant increase in viral DNA within the treated cells. […] Products of the reaction were resolved by agarose gel electrophoresis and the ethidium bromide stained gel (FIG. 3B) was analyzed by densitometry (FIG. 3D).

The test system of experiment [2] is hepatitis B virus (HBV). Nature of the experiment: Progeny HBV in medium of infected HepG2 cells (immunoprecipitation, PCR, densitometry). Type of experiment: cell-based, HBV in human hepatoma HepG2 cells. Conditions: NBDNJ 700 μg/ml (3.2 mM), HepG2 cells infected with protease processed HBV, five days after infection. An excerpt: FIG. 3A and FIG. 3C: DNA from virions, immunoprecipitated with monoclonal antibody to MHBs, was amplified by polymerase chain reaction (PCR) and resolved by agarose gel electrophoresis.
These bands were imaged by densitometry and the areas under the peaks are shown in FIG. 3C in which the average of the two samples of each NBDNJ concentration was plotted.
Infection of HepG2 cells:
HBV was purified from human serum or from the medium of cultured cells by sedimentation to between 40 and 46% sucrose (w/w) following ultracentrifugation, [Seifer et al., Virol. 179, 300-311 (1990)]. Virions were dialyzed in 0.02 M Potassium Phosphate Buffer, pH 7.4, concentrated, treated with V8 protease (from Staphylococcus aureus, Sigma Chemical Co.) overnight at 37° C. centrifuged for 8 hours through a 20% sucrose/0.01M Tris, pH 7.4, 0.14 M NaCl, 0.005 M EDTA (TNE) cushion. The pellets were re-suspended in growth medium and then used to inoculate HepG2 cells.
Progeny virus in the medium of HepG2 cells infected with serum derived HBV was detected by precipitating medium with monoclonal antibody to the PreS2 epitopes. DNA from immunoprecipated virions was amplified by a polymerase chain reaction (PCR) using primers from nucleotides 2815 and 190 with respect to the viral genome (using the EcoRI site as nucleotide 1). […]

The subject of experiment [3] is hepatitis B virus (HBV). Nature of the experiment: HBV DNA from virions secreted into medium of 2.2.15 cells (Southern blot, densitometry). Conditions: six days. Type of experiment: cell-based, HBV in human hepatoma HepG 2.2.15 cells. Here is the method: HepG 2.2.15 cells were grown for 6 days in the presence of the indicated concentration of NBDNJ with one change of medium. After the sixth day (seventh day in culture), cells and medium were collected. Autoradiograms of the viral DNA detected by hybridization of membranes to HBV probes are shown.
FIG. 2A: autoradiogram of a Southern blot of DNA recovered from the medium of 2.2.15 cells maintained in medium without NBDNJ (lanes 1 and 2); and in the following NBDNJ concentrations: 200 μg/ml (lane 3); 500 μg/ml (lane 4); and 1000 μg/ml (lane 5).
HepG2 cells were purchased from the European Collection of Animal Cell Cultures (Porton Down, UK). HepG2 2.15 [2.2.15, Sells and Chen, Proc. Natl. Acad. Sci. USA 84, 1005-1009 (1987)] cells were obtained from Dr. George Acs (Mt. Sinai Medical College, New York, USA).
All tissue cultures were maintained in 5% C02 in RPMI 1640 (GIBCO) medium, supplemented with 10% heat inactivated fetal calf serum (Techgen, London, U.K.), 50 units/ml. of penicillin and streptomycin, 1 mM glutamine (GIBCO). For 2.2.15 cells, 200 μgs/ml. Antibiotic G418 (Genticin, GIBCO) was added to the medium, as in Sells and Chen, Proc. Natl. Acad. Sci. USA 84, 1005-1009 (1987).
Medium from approximately 5×10^6 cells was precipitated with polyethylene glycol (PEG) 8000 (Sigma), after clarification, as in Sells and Chen, Proc. Natl. Acad. Sci. USA 84, 1005-1009 (1987), re-suspended in 0.5 ml. phosphate buffered saline (PBS) and sedimented through a cushion of 20% sucrose in PBS for 5 hours at 50,000 rpm in a Beckman T100.3 rotor (approx. 75,000×g).
DNA was prepared from the pellets as in Sells and Chen, Proc. Natl. Acad. Sci. USA 84, 1005-1009 (1987). […]

`CCCCN1C[C@H](O)[C@@H](O)[C@H](O)[C@H]1CO` [NBDNJ, N-butyl-1,5-dideoxy-1,5-imino-D-glucitol]: the “accumulation of intracellular viral DNA” value in the experiment on hepatitis B virus (HBV) [1] is reported as “accumulate greater amounts of viral DNA”. The “viral DNA in medium of infected cells vs untreated” value with hepatitis B virus (HBV) [2] is “an order of magnitude less viral DNA”. In the experiment on hepatitis B virus (HBV) [3] (Hepatitis B virus, 144 h, NBDNJ 500 μg/ml (2.28 mM), densitometry of FIG. 2A, read-out: decrease in virus specific DNA in medium), the inhibition at 500 µg/mL stood at 90%. The inhibition at 1000 µg/mL with hepatitis B virus (HBV) [3] (Hepatitis B virus, 144 h, NBDNJ 1000 μg/ml, densitometry of FIG. 2A, read-out: decrease in virus specific DNA in medium) was 99%. Moreover, the “virus specific DNA obtained from the media of treated cells (in words)” value in the experiment on hepatitis B virus (HBV) [3] (NBDNJ 200, 500, 1000 μg/ml) is reported as “clear dose-dependent decrease”.

The values are drawn from US6037351A, “Method of inhibiting hepatitis B virus” (priority 1996, dated 2000).
